Data taken from ChEMBL document CHEMBL5518174 (Eur J Med Chem, 2024).
Calls of active or inactive are those of the source. The rule behind the calls is not given here.

Columns and labels:
[1] = Effect on HDAC1 protein expression in human NCI-H1975 cells assessed as fold change at 0.05 uM incubated for 24 hrs by immunoblotting analysis (reference value: 1); format: functional
[2] = Effect on HDAC8 protein expression in human MDA-MB-231 cells assessed as fold change at 0.05 uM incubated for 24 hrs by immunoblotting analysis (reference value: 1); format: functional
[3] = Downregulation of HDAC10 protein expression in human MDA-MB-231 cells assessed as fold change at 0.05 uM incubated for 24 hrs by immunoblotting analysis (reference value: 1); format: functional
[4] = Downregulation of HDAC10 protein expression in human NCI-H1975 cells assessed as fold change at 0.1 uM incubated for 24 hrs by immunoblotting analysis (reference value: 1); format: functional
[5] = Downregulation of HDAC6 protein expression in human MDA-MB-231 cells assessed as fold change at 0.05 uM incubated for 24 hrs by immunoblotting analysis (reference value: 1); format: functional
Histone deacetylase 7 = biological target: T1, Histone deacetylase 7 (Homo sapiens, UniProt Q8WUI4); experiment: Inhibition of recombinant human HDAC7 using acetylated luminogenic substrate incubated for 10 mins by ultra-glo recombinant firefly luciferase based luminescence assay
T1 sequence (Q8WUI4 whole entry): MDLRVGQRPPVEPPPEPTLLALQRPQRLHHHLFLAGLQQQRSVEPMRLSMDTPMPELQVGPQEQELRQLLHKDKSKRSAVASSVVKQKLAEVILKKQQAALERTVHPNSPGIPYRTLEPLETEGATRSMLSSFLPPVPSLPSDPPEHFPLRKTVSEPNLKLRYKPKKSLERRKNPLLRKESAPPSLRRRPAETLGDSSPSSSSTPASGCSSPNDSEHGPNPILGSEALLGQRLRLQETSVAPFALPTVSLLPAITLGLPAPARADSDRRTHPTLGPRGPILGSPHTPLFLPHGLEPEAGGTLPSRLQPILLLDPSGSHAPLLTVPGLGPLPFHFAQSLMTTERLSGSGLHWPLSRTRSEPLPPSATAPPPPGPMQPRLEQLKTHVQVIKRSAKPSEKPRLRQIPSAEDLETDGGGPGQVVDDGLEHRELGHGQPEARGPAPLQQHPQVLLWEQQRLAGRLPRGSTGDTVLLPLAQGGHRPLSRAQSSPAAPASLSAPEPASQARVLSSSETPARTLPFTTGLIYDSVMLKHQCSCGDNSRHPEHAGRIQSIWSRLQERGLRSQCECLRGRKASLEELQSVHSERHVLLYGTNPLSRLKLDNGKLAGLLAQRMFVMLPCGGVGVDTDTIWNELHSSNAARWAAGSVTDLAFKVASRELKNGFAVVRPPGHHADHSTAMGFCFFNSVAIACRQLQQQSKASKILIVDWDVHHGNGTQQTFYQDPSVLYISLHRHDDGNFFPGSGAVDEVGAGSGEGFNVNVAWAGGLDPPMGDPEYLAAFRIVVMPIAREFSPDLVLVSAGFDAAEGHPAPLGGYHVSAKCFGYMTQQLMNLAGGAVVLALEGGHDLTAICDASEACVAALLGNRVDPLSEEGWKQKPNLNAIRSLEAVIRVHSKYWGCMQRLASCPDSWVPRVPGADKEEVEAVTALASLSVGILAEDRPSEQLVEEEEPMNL

[6] = Downregulation of HDAC7 protein expression in human NCI-H1975 cells assessed as fold change at 0.1 uM incubated for 24 hrs by immunoblotting analysis (reference value: 1); format: functional
NCI-H1975 [7] = experiment: cells; format: functional, cell-based; conditions: Homo sapiens, NCI-H1975, 48 h
Description: Cytotoxicity against human NCI-H1975 cells assessed as inhibition of cell growth incubated for 48 hrs by Celltiter-glo assay

[8] = Effect on HDAC4 protein expression in human MDA-MB-231 cells assessed as fold change at 0.1 uM incubated for 24 hrs by immunoblotting analysis (reference value: 1); format: functional
[9] = Toxicity in athymic nude BALB/c mouse xenografted with human NCI-H1975 cells assessed as effect on AST level at 6 mg/kg, ip administered 5 times a week for 3 weeks and measured on day 22; format: organism-based; conditions: in vivo, 528 h, time 22 day
[10] = Toxicity in athymic nude BALB/c mouse xenografted with human NCI-H1975 cells assessed as reduction in body weight at 6 mg/kg, ip administered 5 times a week for 3 weeks and measured on day 22; format: organism-based; conditions: in vivo, 528 h, time 22 day
[11] = Downregulation of HDAC3 protein expression in human NCI-H1975 cells assessed as fold change at 0.1 uM incubated for 24 hrs by immunoblotting analysis (reference value: 1); format: functional
NCI-H1975 [12] = experiment: Antitumor activity against human NCI-H1975 cells xenografted in athymic nude BALB/c mouse assessed as cell apoptosis in tumor region at 6 mg/kg, ip administered 5 times a week for 3 weeks and measured on day 22 by TUNEL assay; format: functional, organism-based; conditions: time 22.0 day
[13] = Upregulation of acetylated H4 protein expression in human MDA-MB-231 cells assessed as fold change at 0.1 uM incubated for 24 hrs by immunoblotting analysis (reference value: 1); format: functional
MDA-MB-231 = experiment: Cytotoxicity against human MDA-MB-231 cells assessed as inhibition of cell growth incubated for 48 hrs by Celltiter-glo assay; format: functional, cell-based; conditions: MDA-MB-231, 48 h
[14] = Upregulation of acetylated H3 protein expression in human MDA-MB-231 cells assessed as fold change at 0.05 uM incubated for 24 hrs by immunoblotting analysis (reference value: 1); format: functional
[15] = Effect on HDAC10 protein expression in human NCI-H1975 cells assessed as fold change at 0.05 uM incubated for 24 hrs by immunoblotting analysis (reference value: 1); format: functional
[16] = Effect on HDAC4 protein expression in human MDA-MB-231 cells assessed as fold change at 0.05 uM incubated for 24 hrs by immunoblotting analysis (reference value: 1); format: functional
[17] = Effect on HDAC5 protein expression in human NCI-H1975 cells assessed as fold change at 0.05 uM incubated for 24 hrs by immunoblotting analysis (reference value: 1); format: functional
[18] = Downregulation of HDAC9 protein expression in human NCI-H1975 cells assessed as fold change at 0.1 uM incubated for 24 hrs by immunoblotting analysis (reference value: 1); format: functional
[19] = Downregulation of HDAC5 protein expression in human MDA-MB-231 cells assessed as fold change at 0.1 uM incubated for 24 hrs by immunoblotting analysis (reference value: 1); format: functional
[20] = Downregulation of HDAC4 protein expression in human NCI-H1975 cells assessed as fold change at 0.1 uM incubated for 24 hrs by immunoblotting analysis (reference value: 1); format: functional

In the case of `CCOc1ccc(-c2nc(C(=O)NCc3ccc(C(=O)NO)cc3)c3[nH]c(=O)n(-c4cccnc4OC)c3n2)cn1`, the “fold change (FC)” value [1] is reported as 1.44, the “fold change (FC)” value [2] is reported as 1.7 and the “fold change (FC)” value [3] is reported as 0.89. The “fold change (FC)” value [4] was 0.9, the “fold change (FC)” value [5] was 0.47 and the IC50 (Histone deacetylase 7) was over 1000 nM. For the same compound, the “fold change (FC)” value [6] was 0.79, the IC50 (NCI-H1975 [7]) was 1200 nM and the “fold change (FC)” value [8] was 1.01. The Activity [9] was “Non-Toxic”, the Activity [10] was “Non-Toxic” and the “fold change (FC)” value [11] was 0.37. For the same compound, the Activity (NCI-H1975 [12]) was “Active”, the “fold change (FC)” value [13] was 2.91 and the IC50 (MDA-MB-231) was 510 nM. For the same compound, the “fold change (FC)” value [14] was 1.29, the “fold change (FC)” value [15] was 1.09 and the “fold change (FC)” value [16] was 1.15. The “fold change (FC)” value [17] was 2.38, the “fold change (FC)” value [18] was 0.33 and the “fold change (FC)” value [19] was 0.99. The “fold change (FC)” value [20] was 0.6.
